Experimental data: patent US6528528B2 (Warner-Lambert Company, priority 1997, dated 2003)
Where two headings read alike, the source gives them in different places.

Assays:
[1] = molecular target: T1, rabbit reticulocyte 15-LO (Oryctolagus cuniculus, UniProt P12530); test: Rabbit Reticulocyte 15-LO Assay (h15LO); format: biochemical; settings: for IC50: 2U rabbit reticulocyte 15-LO, 174 μM linoleic acid, 15 minutes at 4° C.; for h15LO, value given as bare %: concentration not given
T1 construct: Fifteen-lipoxygenase was obtained from phenylhydrazine-treated rabbits and purified per the method of Rapoport; from tissue; host or cells: reticulocytes of phenylhydrazine-treated rabbits
T1 sequence (P12530 1-663): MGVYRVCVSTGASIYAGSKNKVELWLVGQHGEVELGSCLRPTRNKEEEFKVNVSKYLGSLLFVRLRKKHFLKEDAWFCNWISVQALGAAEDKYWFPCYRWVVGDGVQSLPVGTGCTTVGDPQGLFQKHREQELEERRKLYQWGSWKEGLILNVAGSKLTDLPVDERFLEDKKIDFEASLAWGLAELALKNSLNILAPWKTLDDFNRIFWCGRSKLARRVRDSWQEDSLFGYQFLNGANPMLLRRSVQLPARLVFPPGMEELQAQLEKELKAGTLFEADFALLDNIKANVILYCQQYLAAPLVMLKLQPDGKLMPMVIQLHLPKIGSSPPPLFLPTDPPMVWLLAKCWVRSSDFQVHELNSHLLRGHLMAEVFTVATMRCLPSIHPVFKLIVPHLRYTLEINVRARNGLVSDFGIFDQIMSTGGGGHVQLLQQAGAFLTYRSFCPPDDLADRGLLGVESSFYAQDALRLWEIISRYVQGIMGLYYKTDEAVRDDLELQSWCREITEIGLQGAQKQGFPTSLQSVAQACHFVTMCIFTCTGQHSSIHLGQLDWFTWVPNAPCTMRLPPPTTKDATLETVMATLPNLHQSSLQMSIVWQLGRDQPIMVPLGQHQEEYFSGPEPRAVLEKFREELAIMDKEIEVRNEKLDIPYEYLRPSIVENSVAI
Method in brief: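 Purified rabbit reticulocyte 15-LO (2U) incubated with inhibitor and 174 μM linoleic acid in PBS with 0.2% Na cholate for 15 minutes at 4° C. 13-HPODE quantified by peak area against 13-HODE standard curve; % inhibition relative to uninhibited reaction.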

[2] = Table 1, read-out: h15LO % Inhibition at 10 μM
[3] = 0.25 h, Table 2, read-out: h15LO % @ 10 μM

Row | Compound | IC50 ([1]; Table 2) [nM] | melting point [°C] | further results
1 | COc1ccc(C(=O)Nc2ccc(F)cc2)cc1Nc1ccccc1 [Example 39, 3-Phenylamino-4-methoxy-N-(4-fluorophenyl)-benzamide] | 50 | 151 to 152 | 
2 | COc1ccc(C(=O)Nc2ccc(F)c(F)c2)cc1N [Example 15, 3-Amino-4-methoxy-N-(3,4-difluorophenyl)-benzamide] |  | 171 to 172 | IC50 ([1]; Table 1): 9 nM
3 | O=C(Nc1ccc(F)c(NC(=S)Nc2cccc(C(F)(F)F)c2)c1)c1ccc(Cl)c(Cl)c1 [Example 114, 3,4-Dichloro-N-{4-fluoro-3-[3-(3-trifluoromethylphenyl)-thioureido]-phenyl}-benzamide] | 120 | 172 to 174 | 
4 | COc1ccc(C(=O)Nc2ccccc2)cc1NS(=O)(=O)c1ccc(F)cc1F [Example 137, 3-(2,4-Difluoro-benzenesulfonylamino)-4-methoxy-N-phenyl-benzamide] | 151 | 198 to 200 | 
5 | COc1ccc(C(=O)Nc2ccccc2)cc1NC(=S)Nc1cccc(C(F)(F)F)c1 [Example 84, 4-Methoxy-N-phenyl-3-[3-(3-trifluoromethyl-phenyl)-thioureido]-benzamide] | 20 | 177 to 178 | 
6 | Nc1cc(C(=O)Nc2ccccc2)ccc1F [Example 9, 3-Amino-4-fluoro-N-phenyl-benzamide] |  | 167 to 170 | inhibition at 10 µM [1, 2]: 38%
7 | COc1ccc(C(=O)Nc2ccccc2)cc1NC(=S)Nc1ccc(Cl)c(Cl)c1 [Example 85, 3-[3-(3,4-Dichlorophenyl)-thioureido]-4-methoxy-N-phenyl-benzamide] | 20 | 174 to 175 | 
8 | COc1ccc(C(=O)Nc2ccccc2)cc1Nc1cccc(Cl)c1 [Example 31, 3-(3-Chloro-phenylamino)-4-methoxy-N-phenyl-benzamide] | 10 | 168 to 170 | 
9 | COc1ccc(S(=O)(=O)Nc2ccccc2)cc1NC(=S)Nc1cc(Cl)cc(Cl)c1 [Example 109, 3-[3-(3,5-Dichlorophenyl)-thioureido]-4-methoxy-N-phenyl-benzenesulfonamide] |  | 163 to 165 | inhibition at 10 µM [1, 3]: 26%
10 | COc1ccc(C(=O)Nc2ccccc2)cc1NC(=O)C(O)c1ccccc1 (stereo not shown) [Example 257, 3-(2-Hydroxy-2-phenyl-acetylamino)-4-methoxy-N-phenyl-benzamide] |  | 173 to 175 | h15LO, value given as bare % ([1]; Table 2): 61%
11 | COc1ccc(S(=O)(=O)Nc2cc(C(=O)Nc3ccccc3)ccc2OC)cc1 [Example 121, 3-(4-Methoxy-benzenesulfonylamino)-4-methoxy-N-phenyl-benzamide] | 25 | 184 to 186 | 
12 | COc1ccc(C(=O)Nc2ccccc2)cc1NCCc1cccc(C(F)(F)F)c1 [Example 253, 4-Methoxy-N-phenyl-3-[2-(3-trifluoromethyl-phenyl)-ethylamino]-benzamide] |  | 142 to 144 | h15LO, value given as bare % ([1]; Table 2): 60.56%
13 | COc1ccc(C(=O)Nc2ccccc2)cc1NS(=O)(=O)c1cccc(C)c1 [Example 138, 3-(Toluene-3-sulfonylamino)-4-methoxy-N-phenyl-benzamide] | 28 | 195 to 197 | 
14 | COc1ccc(C(=O)Oc2ccccc2)cc1Nc1ccccc1 [Example 55, 3-(Phenylamino)-4-methoxybenzoic Acid, Phenyl Ester] |  | 130 to 131 | inhibition at 10 µM [1, 3]: 54%
15 | COc1ccc(C(=S)Nc2ccccc2)cc1NS(=O)(=O)c1cc(Cl)cc(Cl)c1 [Example 208, 3-(3,5-Dichloro-benzenesulfonylamino)-4-methoxy-N-phenyl-thiobenzamide] |  | 206 to 208 | h15LO, value given as bare % ([1]; Table 2): 98.52%
16 | CCc1ccc(C(=O)Nc2ccccc2)cc1N [Example 17, 3-Amino-4-ethyl-N-phenyl-benzamide] |  | 111 to 113 | inhibition at 10 µM [1, 2]: 65%
17 | COc1ccc(C(=O)Nc2ccccc2)cc1NS(=O)(=O)c1cccc2c(N(C)C)cccc12 [Example 143, 3-(5-Dimethylaminonaphthalene-1-sulfonylamino)-4-methoxy-N-phenyl-benzamide] | 25 | 231 to 232 | 
18 | COc1ccc(C(=O)Nc2ccccc2)cc1NC(=S)Nc1ccc(N(C)C)cc1 [Example 93, 3-[3-(4-Dimethylaminophenyl)-thioureido]-4-methoxy-N-phenyl-benzamide] | 82 | 179 to 180 | 
19 | COc1ccc(C(=O)Nc2ccc(C)cc2)cc1N [Example 7, 3-Amino-4-methoxy-N-(4-methylphenyl)-benzamide] |  | 190 to 194 | inhibition at 10 µM [1, 2]: 67%
20 | COc1ccc(C(=O)Nc2ccccc2)cc1NS(=O)(=O)c1ccc(F)cc1 [Example 125, 3-(4-Fluoro-benzenesulfonylamino)-4-methoxy-N-phenyl-benzamide] | 28 | 209 to 211 | 
21 | COc1ccc(NC(=O)Nc2ccccc2)cc1NC(=S)Nc1cc(Cl)cc(Cl)c1 [Example 86, 1-{3-[3-(3,5-Dichlorophenyl)-thioureido]-4-methoxyphenyl}-3-phenyl-urea] | 260 | 218 to 219 | 
22 | COc1ccc(C(=O)Nc2ccccc2)cc1Nc1cccc(C)c1 [Example 32, 3-(3-Methyl-phenylamino)-4-methoxy-N-phenyl-benzamide] | 23 | 160 to 161 | 
23 | COc1ccc(C(=O)Nc2ccc(C)c(Cl)c2)cc1NC(=S)Nc1cc(Cl)cc(Cl)c1 [Example 104, N-(3-Chloro-4-methylphenyl)-3-[3-(3,5-dichlorophenyl)-thioureido]-4-methoxy-benzamide] | 13 | 195 to 196 | 
24 | COc1ccc(NC(=O)c2ccc(Cl)c(Cl)c2)cc1NC(=S)Nc1cc(Cl)cc(Cl)c1 [Example 115, 3,4-Dichloro-N-{3-[3-(3,5-dichlorophenyl)-thioureido]-4-methoxyphenyl}-benzamide] | 44 | 183 to 186 | 
25 | O=C(Nc1ccccc1)c1cccc(Nc2ccccc2)c1 [Example 25, 3-Phenylamino-N-phenyl-benzamide] | 6430 | 134 to 135 | 
26 | COc1ccc(C(=O)Nc2ccccc2)cc1NC(=S)Nc1ccc(C(F)(F)F)cc1 [Example 63, 4-Methoxy-N-phenyl-3-[3-(4-trifluoromethyl-phenyl)-thioureido]-benzamide] | 49 | 194 to 196 | 
27 | COc1ccc(C(=O)Nc2ccccc2)cc1NCc1ccc(OC)c(OC)c1 [Example 52, 3-(3,4-Dimethoxy-benzylamino)-4-methoxy-N-phenyl-benzamide] |  | 187 to 188 | inhibition at 10 µM [1, 3]: 62%
28 | CCc1ccc(C(=O)Nc2ccc(F)c(F)c2)cc1N [Example 19, 3-Amino-4-ethyl-N-(3,4-difluorophenyl)-benzamide] |  | 108 to 110 | IC50 ([1]; Table 1): 1100 nM
29 | Cc1ccc(C(=O)Nc2ccccc2)cc1NC(=S)Nc1cc(Cl)cc(Cl)c1 [Example 71, 3-[3-(3,5-Dichlorophenyl)-thioureido]-4-methyl-N-phenyl-benzamide] | 526 | 182 to 184 | 
